Source: BindingDB's records for doi:10.1111/cbdd.12588 (Tehran University of Medical Sciences, 2015)

Tests used:
[1] = target: Carboxylic ester hydrolase (Equus caballus, UniProt Q9N1N9); assay: Cholinesterase Inhibition Assay; conditions: pH 8
Protocol: (§1) The target compounds were dissolved in a mixture of 1 mL DMSO and 9 mL methanol and diluted in 0.1 M KH2PO4/K2HPO4 buffer (pH 8.0) to obtain final concentrations.For each compound, five different concentrations were tested to obtain the range of 20-80% enzyme inhibition. The assay medium was composed of 3 mL of phosphatebuffer (0.1 M, pH 8.0), 100 µL of DTNB (0.01 M), 100 µL of enzyme solution (AChE or BuChE, 2.5 unit/mL), and 50 µL of test compound.

[2] = target: Acetylcholinesterase (Electrophorus electricus, UniProt O42275); assay: Cholinesterase Inhibition Assay; conditions: pH 8
Protocol: as §1

Carboxylic ester hydrolase, sequence (Q9N1N9 whole entry): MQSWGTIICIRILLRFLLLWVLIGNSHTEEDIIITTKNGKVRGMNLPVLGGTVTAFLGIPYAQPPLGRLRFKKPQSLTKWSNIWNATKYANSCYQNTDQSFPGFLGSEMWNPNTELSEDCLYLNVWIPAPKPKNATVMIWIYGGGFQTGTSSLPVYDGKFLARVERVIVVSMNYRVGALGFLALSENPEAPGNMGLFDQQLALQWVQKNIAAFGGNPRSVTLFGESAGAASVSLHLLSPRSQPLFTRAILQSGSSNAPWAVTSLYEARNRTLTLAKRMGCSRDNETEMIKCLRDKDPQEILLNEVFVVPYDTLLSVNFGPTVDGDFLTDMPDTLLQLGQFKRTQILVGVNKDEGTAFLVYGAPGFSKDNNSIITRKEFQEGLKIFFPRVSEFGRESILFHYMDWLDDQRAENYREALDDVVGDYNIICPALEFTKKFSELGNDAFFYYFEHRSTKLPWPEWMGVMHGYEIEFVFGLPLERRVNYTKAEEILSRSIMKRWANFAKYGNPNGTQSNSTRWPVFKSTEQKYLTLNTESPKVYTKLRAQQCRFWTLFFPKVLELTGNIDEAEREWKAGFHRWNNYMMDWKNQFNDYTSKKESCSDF
Acetylcholinesterase, sequence (O42275 whole entry): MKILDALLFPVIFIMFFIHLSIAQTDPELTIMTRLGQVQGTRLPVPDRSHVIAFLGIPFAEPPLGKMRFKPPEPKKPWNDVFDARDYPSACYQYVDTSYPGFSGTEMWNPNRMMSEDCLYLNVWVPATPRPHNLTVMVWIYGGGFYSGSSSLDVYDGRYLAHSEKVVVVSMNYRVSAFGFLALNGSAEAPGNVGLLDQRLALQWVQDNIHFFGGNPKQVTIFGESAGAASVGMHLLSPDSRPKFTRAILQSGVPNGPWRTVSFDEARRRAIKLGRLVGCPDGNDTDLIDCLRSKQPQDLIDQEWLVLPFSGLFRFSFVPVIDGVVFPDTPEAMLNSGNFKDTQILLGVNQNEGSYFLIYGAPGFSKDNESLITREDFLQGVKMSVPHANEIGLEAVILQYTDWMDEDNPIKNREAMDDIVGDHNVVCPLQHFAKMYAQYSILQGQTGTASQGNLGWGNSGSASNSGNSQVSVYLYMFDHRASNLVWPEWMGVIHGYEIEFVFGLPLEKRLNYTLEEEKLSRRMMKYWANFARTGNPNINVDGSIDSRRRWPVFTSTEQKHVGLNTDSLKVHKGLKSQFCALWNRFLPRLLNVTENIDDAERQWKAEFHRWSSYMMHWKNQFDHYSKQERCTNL

Row | SMILES | IC50 [1] [µM] | IC50 [2] [µM]
1 | O=C(COc1cc(=O)oc2ccccc12)OCc1cn(Cc2ccccc2Br)nn1 [(1-(2-Bromobenzyl)-1H-1,2,3-triazol-4-yl)methyl 2-(2-oxo-2H-chromen-4-yloxy)acetate (8a)] | 43 | 2.14
2 | O=C(COc1cc(=O)oc2ccccc12)OCc1cn(Cc2ccccc2Cl)nn1 [(1-(2-Chlorobenzyl)-1H-1,2,3-triazol-4-yl)methyl 2-(2-oxo-2H-chromen-4-yloxy)acetate (8k)] | > 50 | 0.18
3 | O=C(COc1cc(=O)oc2ccccc12)OCc1cn(Cc2ccccc2F)nn1 [(1-(2-Fluorobenzyl)-1H-1,2,3-triazol-4-yl)methyl 2-(2-oxo-2H-chromen-4-yloxy)acetate (8h)] | > 50 | 5.7
4 | Cc1ccccc1Cn1cc(COC(=O)COc2cc(=O)oc3ccccc23)nn1 [(1-(2-Methylbenzyl)-1H-1,2,3-triazol-4-yl)methyl 2-(2-oxo-2H-chromen-4-yloxy)acetate (8f)] | > 50 | 1.79
5 | O=C(COc1cc(=O)oc2ccccc12)OCc1cn(Cc2ccccc2[N+](=O)[O-])nn1 [(1-(2-Nitrobenzyl)-1H-1,2,3-triazol-4-yl)methyl 2-(2-oxo-2H-chromen-4-yloxy)acetate (8n)] | > 50 | 0.53
6 | O=C(COc1cc(=O)oc2ccccc12)OCc1cn(Cc2cccc(Br)c2)nn1 [(1-(3-Bromobenzyl)-1H-1,2,3-triazol-4-yl)methyl 2-(2-oxo-2H-chromen-4-yloxy)acetate (8b)] | > 50 | 1.79
7 | O=C(COc1cc(=O)oc2ccccc12)OCc1cn(Cc2cccc(Cl)c2)nn1 [(1-(3-Chlorobenzyl)-1H-1,2,3-triazol-4-yl)methyl 2-((2-oxo-2H-chromen-4-yl)oxy)acetate (8l)] | > 50 | 0.34
8 | O=C(COc1cc(=O)oc2ccccc12)OCc1cn(Cc2cccc(F)c2)nn1 [(1-(3-Fluorobenzyl)-1H-1,2,3-triazol-4-yl)methyl 2-(2-oxo-2H-chromen-4-yloxy)acetate (8i)] | > 50 | 1.64
9 | COc1cccc(Cn2cc(COC(=O)COc3cc(=O)oc4ccccc34)nn2)c1 [(1-(3-Methoxybenzyl)-1H-1,2,3-triazol-4-yl)methyl 2-(2-oxo-2H-chromen-4-yloxy)acetate (8d)] | > 50 | 7
10 | O=C(COc1cc(=O)oc2ccccc12)OCc1cn(Cc2ccc(Br)cc2)nn1 [(1-(4-Bromobenzyl)-1H-1,2,3-triazol-4-yl)methyl 2-(2-oxo-2H-chromen-4-yloxy)acetate (8c)] | > 50 | 87.9
11 | O=C(COc1cc(=O)oc2ccccc12)OCc1cn(Cc2ccc(Cl)cc2)nn1 [(1-(4-Chlorobenzyl)-1H-1,2,3-triazol-4-yl)methyl 2-(2-oxo-2H-chromen-4-yloxy)acetate (8m)] | > 50 | 13
12 | O=C(COc1cc(=O)oc2ccccc12)OCc1cn(Cc2ccc(F)cc2)nn1 [(1-(4-Fluorobenzyl)-1H-1,2,3-triazol-4-yl)methyl 2-(2-oxo-2H-chromen-4-yloxy)acetate (8j)] | > 50 | 2.54
13 | COc1ccc(Cn2cc(COC(=O)COc3cc(=O)oc4ccccc34)nn2)cc1 [(1-(4-Methoxybenzyl)-1H-1,2,3-triazol-4-yl)methyl 2-(2-oxo-2H-chromen-4-yloxy)acetate (8e)] | > 50 | 104
14 | Cc1ccc(Cn2cc(COC(=O)COc3cc(=O)oc4ccccc34)nn2)cc1 [(1-(4-Methylbenzyl)-1H-1,2,3-triazol-4-yl)methyl 2-(2-oxo-2H-chromen-4-yloxy)acetate (8g)] | > 50 | 90
15 | O=C(COc1cc(=O)oc2ccccc12)OCc1cn(Cc2ccc([N+](=O)[O-])cc2)nn1 [(1-(4-Nitrobenzyl)-1H-1,2,3-triazol-4-yl)methyl 2-(2-oxo-2H-chromen-4-yloxy)acetate (8o)] | > 50 | 137
16 | O=C(COc1cc(=O)oc2ccccc12)OCc1cn(Cc2ccccc2)nn1 [(1-Benzyl-1H-1,2,3-triazol-4-yl)methyl 2-((2-oxo-2H-chromen-4-yl)oxy)acetate (8p)] | > 50 | 15.8
